From article PMC10162847 (Phytomedicine, 2023)

Test system: SARS-CoV-2 RBD^WT and mutant proteins on HEK293-hACE2-EGFP cells
Type: cell-based, human

Q: `O=c1c(O)c(-c2cc(O)c(O)c(O)c2)oc2cc(O)cc(O)c12` [myricetin, 3,5,7-trihydroxy-2-(3,4,5-tri hydroxyphenyl)-4-benzopyrone] was tested. Which “binding of SARS-CoV-2 S protein to HEK293-hACE2-EGFP cell membranes” value did it give?
A: blocked
